The target in the experiment is T1, human α-thrombin (Homo sapiens, UniProt P00734).
T1 construct: Human α-thrombin, human factor Xa and human plasmin were obtained from Enzyme Research Laboratories; purchased Enzyme Research Laboratories (South Bend, Ind.)
Nature of the experiment: In vitro inhibition of purified enzymes: Ki determination, hydrolysis of peptide p-nitroanilide substrate by thrombin. Type of experiment: biochemical. From the text:
Reagents: All buffer salts were obtained from Sigma Chemical Company (St. Louis, Mo.), and were of the highest purity available.
Human α-thrombin, human factor Xa and human plasmin were obtained from Enzyme Research Laboratories (South Bend, Ind.). Bovine α-chymotrypsin (Sigma C4129), bovine trypsin (Sigma T8642) and human kidney cell urokinase (Sigma U5004) were obtained from Sigma. Human leukocyte elastase was obtained from Elastin Products (Pacific, Mo.).
Ki Determinations: All assays are based on the ability of the test compound to inhibit the enzyme catalyzed hydrolysis of a peptide p-nitroanilide substrate. […] The final concentrations for each of the substrates is listed below. In general, substrate concentrations are lower than the experimentally determined value for Km. Test compounds are prepared as a 1.0 mg/ml solution in DMSO. […]
Data corresponding to less than 10% of the total substrate hydrolysis were used in the calculations. The ratio of the velocity (rate of change in absorbance as a function of time) for a sample containing no test compound is divided by the velocity of a sample containing test compound, and is plotted as a function of test compound concentration. The data are fit to a linear regression, and the value of the slope of the line calculated. The inverse of the slope is the experimentally determined Ki value. […]

pKi: −log10 of the molar value. Structures can show the parent of a compound that is named as a salt.

The pKi is −log10 of the Ki, conventionally taken in molar units. Lower therefore signals a large Ki. Compound `Cc1nc(N)ccc1CNC(=O)Cc1c(Cl)ccc(NCC(F)(F)c2ccc(F)c3ccccc23)c1F` [Example 5, N-[(6-Amino-2-methyl(3-pyridyl))methyl]-2-(3-{[2,2-difluoro-2-(4-fluoronaphthyl)ethyl]amino}-6-chloro-2-fluorophenyl)acetamide Hydrochloride Salt] showed a pKi of 8.55.

(Values after patent US6900231B2, “Aminopyridyl-substituted phenyl acetamides as protease inhibitors” (3-Dimensional Pharmaceuticals, Inc., priority 2000, dated 2005).)
